The text below walks through data of patent US7943660B2, “Inhibitors of the LFA-1/ICAM-1 interaction and uses thereof” (Dominion Pharmakine S.L., priority 2005, dated 2011).

Consider `CC[C@H](C)C(OCc1ccccc1)[C@H]1[C@H]([N+](=O)[O-])[C@H](c2ccccc2)N[C@@H]1C(=O)NCCC(=O)O` (stereo partly drawn) [Compound 1, 3-[(2S,3R,4S,5S)-3-[(2S)-1-(Benzyloxy)-2-methylbutyl]-4-nitro-5-phenylpyrrolidine-2-carboxamido]propanoic acid], for which the melting point lay in the range of 140 to 141 °C. In turn, `CC[C@H](C)C(OCc1ccccc1F)[C@H]1[C@H]([N+](=O)[O-])[C@H](c2ccccc2)N[C@@H]1C(=O)NCCC(=O)O` (stereo partly drawn) [Compound 3, 3-[(2S,3R,4S,5S)-3-[(2S)-1-(2-Fluorobenzyloxy)-2-methylbutyl]-4-nitro-5-phenylpyrrolidine-2-carboxamido]propanoic acid] gave a melting point of 136 to 138 °C. `CC[C@H](C)C(OCc1ccccc1F)[C@H]1[C@H]([N+](=O)[O-])[C@H](c2ccsc2)N[C@@H]1C(=O)NCCC(=O)O` (stereo partly drawn) [Compound 4, 3-[(2S,3R,4S,5S)-3-[(2S)-1-(2-Fluorobenzyloxy)-2-methylbutyl]-4-nitro-5-(thiophen-3-yl)pyrrolidine-2-carboxamido]propanoic acid] yielded a melting point of 113 to 114 °C. The figure for `CC[C@H](C)C(OCc1ccccc1)[C@H]1[C@H]([N+](=O)[O-])[C@H](c2ccsc2)N[C@@H]1C(=O)NCCC(=O)O` (stereo partly drawn) [Compound 5, 3-[(2S,3R,4S,5S)-3-[(2S)-1-(Benzyloxy)-2-methylbutyl]-4-nitro-5-(thiophen-3-yl)pyrrolidine-2-carboxamido]propanoic acid] is 145 to 146 °C; for `CC[C@H](C)C(OCc1ccccc1F)[C@H]1[C@H]([N+](=O)[O-])[C@@H](c2cccs2)N[C@@H]1C(=O)NCCC(=O)O` (stereo partly drawn) [Compound 6, 3-[(2S,3R,4S,5S)-3-[(2S)-1-(2-Fluorobenzyloxy)-2-methylbutyl]-4-nitro-5-(thiophen-2-yl)pyrrolidine-2-carboxamido]propanoic acid] it is 94 to 96 °C; for `CC[C@H](C)C(OCc1ccccc1)[C@H]1[C@H]([N+](=O)[O-])[C@@H](c2cccs2)N[C@@H]1C(=O)NCCC(=O)O` (stereo partly drawn) [Compound 7, 3-[(2S,3R,4S,5S)-3-[(2S)-1-(Benzyloxy)-2-methylbutyl]-4-nitro-5-(thiophen-2-yl)pyrrolidine-2-carboxamido]propanoic acid] it is 79 to 80 °C. The figure for `CC(C)C(OCc1ccccc1)[C@H]1[C@H]([N+](=O)[O-])[C@H](c2cccnc2)N[C@@H]1C(=O)NCCC(=O)O` (stereo partly drawn) [Compound 8, 3-[(2S,3R,4S,5S)-3-(1-(Benzyloxy)-2-methylpropyl)-4-nitro-5-(pyridin-3-yl)pyrrolidine-2-carboxamido]propanoic acid] is 98 to 100 °C; for `CC(C)C(OCc1ccccc1)[C@H]1[C@H]([N+](=O)[O-])[C@@H](c2ccco2)N[C@@H]1C(=O)NCCC(=O)O` (stereo partly drawn) [Compound 9, 3-[(2S,3R,4S,5S)-3-(1-(Benzyloxy)-2-methylpropyl)-5-(furan-2-yl)-4-nitropyrrolidine-2-carboxamido]propanoic acid] it is 70 to 72 °C; for `CC[C@H](C)C(OCc1ccccc1)[C@@H]1[C@H]([N+](=O)[O-])[C@H](c2ccccc2)N(C(=O)CN)[C@]1(C)C(=O)NCCC(=O)O` (stereo partly drawn) [Compound 16, 3-[(2S,3R,4S,5S)-1-(2-Aminoacetyl)-3-[(2S)-1-(benzyloxy)-2-methylbutyl]-2-methyl-4-nitro-5-phenylpyrrolidine-2-carboxamido]propanoic acid] it is 115.9 to 116.2 °C.

`CC[C@H](C)C(OCc1ccccc1)[C@@H]1[C@H]([N+](=O)[O-])[C@H](c2ccccc2)N(C(=O)CN)[C@]1(C)C(=O)NCCCC(=O)O` (stereo partly drawn) [Compound 17, 4-[(2S,3R,4S,5S)-1-(2-aminoacetyl)-3-[(2S)-1-(benzyloxy)-2-methylbutyl]-2-methyl-4-nitro-5-phenylpyrrolidine-2-carboxamido]butanoic acid] yielded a melting point of 132.7 to 133.6 °C.
